Series [1] in a line: PAMPA membrane permeability assay. In kind it is in vitro ADME. The conditions noted are these: pH 7.4, GIT lipid, 4 hours incubation. The protocol: The PAMPA assay (pION, Inc., Woburn MA) was used to determine the ability of compounds of the invention to cross an artificial lipid membrane by passive diffusion. Test compounds were dissolved in DMSO (10 mM) and diluted 200-fold in buffer (pION Inc., pH 7.4) to provide 50 μM stock solutions. Buffer (150 μL) was added to a UV blank plate and stock solutions (150 μL) were transferred to a UV reference plate. The blank and reference spectrum were read using a spectrophotometer. Stock solutions (200 μL) were added to the donor plate of the PAMPA sandwich plate and an accept plate painted with GIT lipid (pION Inc, 5 μL) was placed on top. Buffer (200 μL) was added to the acceptor plate and the PAMPA sandwich plate was incubated for 4 hours. Aliquots (150 μL) from the acceptor plate were added to a UV plate and read as acceptor spectrum. Aliquots (150 μL) of the donor solutions were added to a UV analysis plate and read as donor spectrum. The permeability coefficient of test compounds was calculated using PAMPA Explorer™ software (version 3.5.0.4) based on the AUC of the reference plate, the donor plate, and the acceptor plate.
(PAMPA measures passive passage across an artificial lipid membrane.)

The target in series [2] is T1, NaV1.7 (Homo sapiens, UniProt Q15858).
T1 construct: expressed in transfected cells; tetracycline-inducible, kept under hygromycin and blasticidin selection
T1 sequence (Q15858 whole entry): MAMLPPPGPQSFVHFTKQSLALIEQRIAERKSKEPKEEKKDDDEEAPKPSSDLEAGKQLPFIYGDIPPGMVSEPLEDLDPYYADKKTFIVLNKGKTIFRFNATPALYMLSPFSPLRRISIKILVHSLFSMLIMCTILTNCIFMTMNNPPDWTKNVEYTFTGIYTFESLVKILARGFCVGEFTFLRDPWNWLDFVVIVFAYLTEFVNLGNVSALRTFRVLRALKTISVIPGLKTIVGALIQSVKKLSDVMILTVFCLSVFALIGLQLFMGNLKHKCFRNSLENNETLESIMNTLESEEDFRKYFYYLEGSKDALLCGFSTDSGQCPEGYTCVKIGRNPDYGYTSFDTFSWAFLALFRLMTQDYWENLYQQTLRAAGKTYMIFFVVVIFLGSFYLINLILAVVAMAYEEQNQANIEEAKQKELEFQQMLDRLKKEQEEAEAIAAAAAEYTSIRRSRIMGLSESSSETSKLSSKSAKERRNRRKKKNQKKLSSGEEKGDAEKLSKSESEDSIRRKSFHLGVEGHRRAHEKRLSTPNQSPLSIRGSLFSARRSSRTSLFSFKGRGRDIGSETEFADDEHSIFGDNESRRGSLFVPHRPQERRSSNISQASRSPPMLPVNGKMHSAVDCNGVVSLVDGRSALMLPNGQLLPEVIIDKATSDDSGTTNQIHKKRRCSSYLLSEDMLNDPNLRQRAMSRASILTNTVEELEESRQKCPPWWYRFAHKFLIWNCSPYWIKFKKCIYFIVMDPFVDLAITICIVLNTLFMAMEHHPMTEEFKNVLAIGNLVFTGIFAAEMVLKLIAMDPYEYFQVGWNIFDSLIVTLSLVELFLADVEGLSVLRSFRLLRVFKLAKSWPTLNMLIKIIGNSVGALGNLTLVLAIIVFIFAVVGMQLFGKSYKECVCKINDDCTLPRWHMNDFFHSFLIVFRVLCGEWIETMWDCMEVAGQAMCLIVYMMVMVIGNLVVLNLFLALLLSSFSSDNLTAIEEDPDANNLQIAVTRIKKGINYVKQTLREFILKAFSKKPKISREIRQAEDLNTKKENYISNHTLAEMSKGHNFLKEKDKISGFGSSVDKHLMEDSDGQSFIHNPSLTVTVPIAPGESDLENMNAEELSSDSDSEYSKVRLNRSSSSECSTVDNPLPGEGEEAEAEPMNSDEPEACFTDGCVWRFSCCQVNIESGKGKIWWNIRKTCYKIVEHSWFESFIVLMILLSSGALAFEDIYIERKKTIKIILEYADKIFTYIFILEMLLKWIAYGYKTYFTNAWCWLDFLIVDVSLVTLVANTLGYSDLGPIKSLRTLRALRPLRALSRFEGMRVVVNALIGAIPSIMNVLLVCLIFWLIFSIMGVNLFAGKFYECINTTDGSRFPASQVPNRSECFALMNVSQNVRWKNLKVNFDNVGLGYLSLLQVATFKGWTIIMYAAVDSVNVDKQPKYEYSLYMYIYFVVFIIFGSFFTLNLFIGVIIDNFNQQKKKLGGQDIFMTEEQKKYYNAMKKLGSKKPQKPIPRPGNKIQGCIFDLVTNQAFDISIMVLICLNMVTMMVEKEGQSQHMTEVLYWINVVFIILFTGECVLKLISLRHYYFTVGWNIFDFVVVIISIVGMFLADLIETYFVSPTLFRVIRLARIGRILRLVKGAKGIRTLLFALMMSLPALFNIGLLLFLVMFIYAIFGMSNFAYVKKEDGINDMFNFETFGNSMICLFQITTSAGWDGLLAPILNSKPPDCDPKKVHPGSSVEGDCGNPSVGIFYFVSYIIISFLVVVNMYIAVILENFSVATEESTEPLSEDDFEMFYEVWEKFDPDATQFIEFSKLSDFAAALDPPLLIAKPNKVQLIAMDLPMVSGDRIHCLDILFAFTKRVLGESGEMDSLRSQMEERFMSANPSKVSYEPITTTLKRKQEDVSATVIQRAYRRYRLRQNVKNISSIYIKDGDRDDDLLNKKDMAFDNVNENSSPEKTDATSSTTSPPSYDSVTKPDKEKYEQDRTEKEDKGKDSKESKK
Description: Intracellular (internal block) inhibition of NaV1.7 current, whole cell patch clamp. In kind it is cell-based. The conditions noted are these: compound in internal solution; for inhibition at 1 µM: read-out: Nav 1.7 Intracellular Inhibition. The protocol:
(§1) NaV1.7 was expressed upon induction with tetracycline. Cells were cultured in DMEM containing 10% dialyzed Fetal Bovine Serum (VWR, Radnor, PA), 1% Glutamax (VWR, Radnor, PA), 1% Penicillin-Streptomycin (VWR, Radnor, PA), 100 mg/L Hygromycin (Thermo Fisher Scientific, Waltham, MA and 5 mg/L Blasticidin (Alfa Aesar, Haverhill, MA). Cells were grown and maintained at 37° C. in a humidified environment containing 10% CO2 in air. Cells were detached from the culture flask for passage and harvested using 0.05% Trypsin-EDTA (Thermo Fisher Scientific, Waltham, MA). To induce NaV1.7, cells were induced with tetracycline (0.1-1 μg/mL, IBI Scientific, Peosta, IA) the day before recording and plated onto 24-well plates. Cells were washed with DPBS (VWR, Radnor, PA), trypsinized and then triturated five times in 10 mL of growth media to break apart cell aggregates. For one 24-well plate, 2 mL of cell suspension was mixed with 23 mL of fresh growth media and 0.1-1 μg/mL tetracycline added. 1 ml of mixed media with cells was then added to each well of a 24-well plate, with a 12 mm coverslip already placed in the bottom of the well. Cells were then incubated in 37° C. and 10% CO2 overnight.
The intracellular solution contained the following (in mM) CsCl 135, NaCl 10, EGTA 10, HEPES 10, MgCl2 2, adjusted to pH 7.2 with CsOH. The external solution was a normal Ringer solution containing (in mM) NaCl 155, HEPES 10, glucose 10, KCl 3.5, CaCl2 1.5, MgCl2 1 adjusted to pH 7.4 with NaOH. CsCl is from Alfa Aesar, Haverhill, MA. All other chemicals are from Sigma-Aldrich, St. Louis, MO. In order to test the degree of internal block by test compounds the compounds were dissolved in internal solution at the indicated test concentration. […] In order to test the degree of external block by test compounds the compounds were dissolved in external solution at the indicated test concentration.
18-24 hours after cells were induced with tetracycline, coverslips were placed into a chamber filled with Normal Ringer solution at room temperature and the chamber placed on a microscope. Pipettes were pulled from borosilicate glass on a P97 puller (Sutter Instrument, Novato, CA) and polished with a MF-830 Microforge (Narishige International USA, Inc, Amityville, NY) to have a resistance of 1.5-2.5 MΩ when filled with CsCl internal solution at room temperature. Healthy cells (those that are round and translucent with no visible blemishes) were chosen for seal formation. A seal was formed between the pipette and the cell, and a brief pulse of suction was used to “break in” and establish the whole-cell configuration. The membrane potential was held at −100 mV before the voltage protocol began. Only cells with series resistance between 1.5-5 MΩ were retained for analysis. The voltage protocol was as follows: Cells were held at −100 mV for 12 ms followed by a hyperpolarizing step to −105 mV for 12 ms to monitor the leak. Cells were then stepped back to −100 mV for 40 ms. Cells were then depolarized to −20 mV for 10 ms and then returned to −100 mV for 26 ms.
Once the recording was started, the voltage protocol was run at 30 second intervals for 5 minutes to get a stable baseline. This was followed by four 30-second periods of 5 Hz stimulation of the same voltage protocol separated by 1 minute of rest which was then followed by 0.33 Hz stimulation after the last train. Currents were recorded using PatchMaster software with Heka EPC10 (HEKA Electronics, Lambrecht, Germany). Only cells with inward current amplitudes at −20 m V between 400 pA and 4 nA were accepted. In addition, cells having leak currents greater than 10% of their current amplitudes were discarded.
(§2) The data was plotted using the Patchmaster software (HEKA Electronics, Lambrecht, Germany) and analyzed by plotting the minimum current during the voltage step to −20 m V (peak inward current) as a function of time. […]
A general note: Patch clamp records ionic current or voltage across a cell membrane.

The target in series [3] is T1, NaV1.7. Nature of the series: Extracellular (external block) inhibition of NaV1.7 current, whole cell patch clamp. In kind it is cell-based. The conditions noted are these: compound in external solution. As to the method:
as §1, with “For one 24-well plate, 2 mL of cell suspension was mixed with 23 mL of fresh growth media and 0.1-1 μg/mL tetracycline added. 1 ml of mixed media with cells was then added to each well of a 24-well plate, with a 12 mm coverslip already placed in the bottom of the well. Cells were then incubated in 37° C. and 10% CO2 overnight.” left out
Once the recording was started, the voltage protocol was run at 30 second intervals for 5 minutes to get a stable baseline. […] Currents were recorded using PatchMaster software with Heka EPC10 (HEKA Electronics, Lambrecht, Germany). […]
as §2

Experimental findings from patent publication US20240277727A1, “CHARGED ION CHANNEL BLOCKERS AND METHODS FOR USE” (Nocion Therapeutics, Inc., priority 2019, published 2024) are described below.

One may read the inhibition as the relative decrease from the control value, in per cent. As usually defined, the Papp is a coefficient for how fast a substance crosses the barrier. A high value points to fast passage.

Consider `COC(=O)c1scc(C)c1NC(=O)C[N+]1(Cc2ccccc2)CCCC1.[Br-]` [A], for which the “PAMPA (10^−6 cm/s)” value in series [1] is given as “+ (“+” (<0.1 10^−6 cm/s))”. Moreover, the inhibition at 1 µM at NaV1.7 [2] was 40 to 70%.

As for `COC(=O)c1scc(C)c1NC(=O)C[N+]1(Cc2ccccc2)CCCCC1.[Br-]` [B], the “PAMPA (10^−6 cm/s)” value in series [1] is given as “++ (“++” (0.1-2.0 10^−6 cm/s))”. For the same compound, on NaV1.7 [2], the inhibition at 1 µM was in the range of 40 to 70%.

With `CCCOC(=O)c1scc(C)c1NC(=O)C[N+]1(Cc2ccccc2)CCCCCC1.[Br-]` [C], the “PAMPA (10^−6 cm/s)” value in series [1] was “+ (“+” (<0.1 10^−6 cm/s))”. Besides, on NaV1.7 [2], the inhibition at 1 µM is over 90%.

Consider `COC(=O)c1scc(C)c1NC(=O)C[N+]1(Cc2ccccc2)CCCCCC1.[Br-]` [Compound-31, 1-benzyl-1-(2-((2-(methoxycarbonyl)-4-methylthiophen-3-yl)amino)-2-oxoethyl) azepan-1-ium bromide], for which, in series [1] (PAMPA), the Papp at 4 h, 50 µM is 0.4 ×10⁻⁶ cm/s. Moreover, the “PAMPA (10^−6 cm/s)” value in series [1] is listed as “++ (“++” (0.1-2.0 10^−6 cm/s))”. The inhibition at 1 µM on NaV1.7 [2] lay in the range of 70 to 90%. Moreover, the figures for the inhibition at 3 µM against NaV1.7 [2] (test concentration of 3 μM) and at NaV1.7 [3] (test concentration of 3 μM) were over 95% and under 40%, respectively.

For the compound `CCOC(=O)c1scc(C)c1NC(=O)C[N+]1(Cc2ccccc2)CCCCCC1.[Br-]` [D], the “PAMPA (10^−6 cm/s)” value in series [1] is listed as “+ (“+” (<0.1 10^−6 cm/s))”. The figures for the inhibition at 1 µM at NaV1.7 [2] and against NaV1.7 [3] (test concentration of 1 μM) were over 90% and under 40%, respectively.

For the compound `Cc1csc(C(=O)OC(C)C)c1NC(=O)C[N+]1(Cc2ccccc2)CCCCCC1.[Br-]` [E], the “PAMPA (10^−6 cm/s)” value in series [1] was “++ (“++” (0.1-2.0 10^−6 cm/s))”. Also, the inhibition at 1 µM on NaV1.7 [2] was 70 to 90%.

Regarding `CC[N+]1(CC(=O)Nc2c(C)csc2C(=O)OC)CCCC(c2ccccc2)C1.[I-]` (stereo not shown) [F], the “PAMPA (10^−6 cm/s)” value in series [1] is recorded as “+ (“+” (<0.1 10^−6 cm/s))”. Also, the inhibition at 1 µM at NaV1.7 [2] lay in the range of 70 to 90%.

In the case of `CCC(C(=O)Nc1c(C)csc1C(=O)OC)[N+]1(Cc2ccccc2)CCCCC1.[Br-]` (stereo not shown) [G], the “PAMPA (10^−6 cm/s)” value in series [1] was “+ (“+” (<0.1 10^−6 cm/s))”. In addition, the inhibition at 1 µM on NaV1.7 [2] lay in the range of 40 to 70%.

For `Cc1csc(C)c1NC(=O)C[N+]1(Cc2ccccc2)CCCCCC1.[Br-]` [H], the “PAMPA (10^−6 cm/s)” value in series [1] is recorded as “+ (“+” (<0.1 10^−6 cm/s))”. Further, the inhibition at 1 µM on NaV1.7 [2] was in the range of 40 to 70%.
